# “Also recorded” adds a separate entry of the source. Counter-ions that a name gives are not always drawn.
# How the values were obtained:
# [1] = tested on: MCF-7, T47D, and MDA-MB-231 breast cancer cell lines; assay: Matrigel invasion assay; assay type: cell-based
# Experimental: Breast cancer cell lines, MCF-7, T47D, and MDA-MB-231 were used to measure the effect of compound I on TPA-induced invasion activity using Matrigel Invasion Chamber (BD Bioscience, San Jose, Calif.) according to the manufacturer's protocol. Matrigel-coated chambers containing an 8 μm pore size filter were fitted into a 24-well tissue culture plate. Briefly, breast cancer cells (1×10^5 cells/ml) of each cell line were seeded into […] Matrigel-coated chambers with DMSO, TPA, or TPA plus compound I conditions and incubated for 24 hrs. The media wells for each plate contained only standard growth medium. After 24 hrs the non-invading cells were removed from the upper side of the chamber by cotton tipped applicators. The invaded cells on the bottom side were stained using Diff-Quik staining (Dade Behring, Deerfield, Ill.) and photographed. Three independent results were very similar.
# In order to evaluate the potential therapeutic activity of the compound, tests for the biological activity of compound I were performed. […] Following anchorage-independent colony induction in TPA-treated cells without or with compound I, colonies were lysed and measured with CyQuant GR Dye to detect DNA by fluorescence plate reader as a measure of colony count. Total transformed colony numbers were calculated from RFU and cell dose curve of JB6 cells. […]
# p65/p50 = assay: Nuclear translocation of p65/p50, immunoblot of nuclear and cytoplasmic extracts; assay type: cell-based; conditions: compound I pretreatment, HEK293
# Experimental: (§1) To measure endogenous level of several proteins in response to TPA induction and compound I, HEK293 cells were lysed with RIPA buffer (10 mM Tris-HCl pH 7.5, 1 mM EDTA, 0.1% sodium dodecyl sulfate, 0.1% deoxycholate, and protease inhibitor). Whole cell extracts were subjected to immunoblot analysis with the following antibodies: p65 (F-6), p50 (E-10), p52 (C-5), RelB (C-19), IκBα (C-21), PCNA (F-2) were obtained from Santa Cruz Biotechnology (Santa Cruz, Calif.). IKKα, IKKβ, IKKγ, phospho-IκBα, phospho-IKKα/β, phospho-IKKγ, pohospho-Stat3 (Tyr 705 and Ser 727), phospho-p65 (Ser536 and Ser276), phospho-p44/42, phospho-JNKs were purchased from Cell Signaling (Danvers, Mass.), and α-tubulin from Sigma (St. Louis, Mo.). Nuclear and cytoplasmic extracts were prepared with HEK293 cells by NE-PER Nuclear and Cytoplasmic Extraction Reagents (Pierce Biotechnology, Rockford, Ill.) according to the manufacturer's protocol.
# Nuclear translocation of endogenous p65/p50 and RelB/p52 heterodimers were monitored The activation of heterodimers p65/p50 and RelB/p52 occurs by distinct pathways dependent on IKKβ or IKKα catalytic activity. Repression of IKKβ would be expected to influence nuclear translocation of p65/p50 while repression of IKKα would influence processing of p100 to p52. […] However translocation of RelB is only dependent on IKKα for processing of its dimer partner p52 from p100. […]
# STAT3 = assay: Immunoblot of TPA-inducible STAT3 phosphorylation; assay type: cell-based; conditions: 17.0 μM and 8.5 μM pretreatment
# Experimental: as §1
# (§2) The selectivity of compound I was evaluated by measuring phosphorylation of proteins involved in the AP-1 induction pathway. AP-1 dependent transcription can be activated by MAP Kinases JNK, ERK 1/2 (p44/42). […] At these concentrations compound I, in contrast, completely repressed major regulators in the NFκB activation pathway. JNKs are activated by a variety of environmental stresses responsible for AP-1 activation through c-Jun phosphorylation. […]
# IL-6 mRNA = assay: Quantitative RT-PCR of endogenous IL-6 mRNA in HEK293 cells; assay type: cell-based, human; conditions: concentrations as low as 2.1 μM, 1 hour pretreatment, TPA 18 hours, normalized by GAPDH
# Experimental: Total RNA was isolated from HEK293 cells after pretreatment with varying compound I and/or TPA stimulation by ToTALLY RNA kit (Ambion, Austin, Tex.), and first-strand cDNA was synthesized from 1 μg of the isolated total RNA using the SuperScript III First-Strand Synthesis System (Invitrogen, Carlsbad, Calif.) with random hexamers, oligonucleotide primers. cDNA was purified by QIAquick PCR purification kit (Qiagen, Valencia, Calif.) according to the manufacturer's manual. Real-time PCR was performed with iQ SYBR Green Supermix (Bio-Rad, Hercules, Calif.) by iQ5 Multicolor RT-PCR detection system (Bio-Rad, Hercules, Calif.). Primers for endogenous human IL-6 were designed by Primer 3 program (http://frodo.wi.mit.edu/). Human glyceraldehyde-3-phosphate dehydrogenase (hGAPDH) was used as a control. The sequences for RT-PCR are as follows:
# Inhibition of NFκB transactivation would be expected to result in suppressed expression of genes whose transcription depends on NFκB. Quantitative RT-PCR was used to measure endogenous levels of IL-6 mRNA, transcribed from a gene whose transcription depends on NFκB but not AP-1. […] Plasmids expressing luciferase reporters were driven by promoters for COX-2, uPAR (urokinase-type plasminogen activator receptor), or VEGF. […]
# JNK = assay: Immunoblot of TPA-induced JNK phosphorylation; assay type: cell-based; conditions: 17.0 μM and 8.5 μM pretreatment
# Experimental: as §1, §2
smiles,measurement,setting,value
"Cc1cc(N)ccc1N=Nc1ccc(S(=O)(=O)CCOS(=O)(=O)O)cc1 [compound I, 2-(4-((4-amino-2-methylphenyl)diazenyl)phenylsulfonyl)ethyl hydrogen sulfate]",Basal invasive activity,[1]; MBA-MB-231 cells,completely inhibited
same,TPA-increased invasion,"[1]; three breast cancer cell lines, 24 hrs",completely inhibited; also recorded: inhibits
same,TPA-induced nuclear translocation of p65 (RelA),p65/p50,remarkably repressed; also recorded: interception
same,TPA inducible phosphorylation of STAT3,STAT3,no repression
same,Part of TPA induction of IL-6 mRNA prevented,IL-6 mRNA,more than half
same,TPA-induced phosphorylation of endogenous JNK,JNK,no repression

# From patent publication US8729053B2, “Nuclear factor kappa B pathway inhibitor composition and use of same” (The United States of America, as represented by the …, priority 2008, dated 2014)
